Experimental data published in patent publication US12679878B2, “CRF2 receptor agonists and their use in therapy” (SANOFI, priority 2020, dated 2026).
Starred links: 1 amine or outer side, 2 acyl side, 3 side chain; linkers in the order of their positions; H or OH if unused. Non-standard residues stand in square brackets, D forms with d. Residues, ends and D or L forms follow the SMILES beside them. Groups on a side chain read outwards from the residue. *: point of attachment. C18 diacid = O=C(O)CCCCCCCCCCCCCCCCC(=O)*; γGlu = O=C(O)[C@H](CCC(=O)[*:2])N[*:1]; AEEA = NCCOCCOCC(=O)O; Aib = CC(C)(N)C(=O)O

Molecular target: T1, human CRF2α receptor (Homo sapiens, UniProt Q13324)
T1 construct: expressed in transfected cells; host or cells: TeloHEAC
T1 sequence (Q13324 1-411): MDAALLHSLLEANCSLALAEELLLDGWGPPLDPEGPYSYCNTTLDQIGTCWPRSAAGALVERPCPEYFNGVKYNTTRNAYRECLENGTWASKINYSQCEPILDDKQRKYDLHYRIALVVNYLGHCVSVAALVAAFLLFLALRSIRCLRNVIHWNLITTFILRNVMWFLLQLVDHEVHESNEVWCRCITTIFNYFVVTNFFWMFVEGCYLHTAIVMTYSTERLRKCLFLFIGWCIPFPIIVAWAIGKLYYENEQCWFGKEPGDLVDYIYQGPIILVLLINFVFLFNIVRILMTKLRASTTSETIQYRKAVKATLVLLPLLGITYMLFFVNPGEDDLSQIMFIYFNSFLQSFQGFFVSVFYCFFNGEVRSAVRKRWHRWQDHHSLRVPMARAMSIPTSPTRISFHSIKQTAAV
Experiment: cAMP agonism at human CRF2 α receptor in TeloHEAC cells (Example 7)
Format: cell-based
Conditions: cAMP HTRF, TeloHEAC cells stably expressing human CRF2 α, 0% HSA; read-out: EC50 [nM], 0% HSA
Protocol: Agonism of compounds for human corticotropin-releasing factor 2α (CRF2 α receptor) was determined by functional assays measuring CAMP response of a TeloHEAC cell line stably expressing human CRF2 α receptor.
Cells were grown in a T175 culture flask placed at 37° C. to near confluence in medium (DMEM/10% FBS) and collected in 2 ml vials in cell culture medium containing 10% DMSO in a concentration of 10-50 million cells/ml. Each vial contained 1.8 ml cells. The vials were slowly frozen to −80° C. in isopropanol and then transferred in liquid nitrogen for storage. Prior to use, frozen cells were thawed quickly at 37° C. and washed (5 min at 900 rpm) with 20 ml cell buffer (1×HBSS; 20 mM HEPES; 0% or 0.1% HSA). Cells were resuspended in assay buffer (cell buffer plus 2 mM IBMX) and adjusted to a cell density of 1 million cells/ml. For measurement, 5 μl cells (final […]) and 5 μL of test compound were added to a 384-well plate, followed by incubation for 30 minutes at room temperature.
The CAMP content of cells was determined using a kit from Cisbio Corp. (cat. no. 62AM4PEC) based on HTRF (Homogenous Time Resolved Fluorescence). After addition of HTRF reagents diluted in lysis buffer (kit components), the plates were incubated for 1 h, followed by measurement of the fluorescence ratio at 665/620 nm. The percent activity value (E %) was calculated by setting 1000 nM of urocortin 2 (UCN2) as 100%. The in vitro potency of the compounds was quantified by determining the concentrations that caused 50% activation of maximal response (EC50).

Structure (SMILES)	EC50
CC[C@H](C)[C@H](N)C(=O)N[C@H](C(=O)N[C@@H](CC(C)C)C(=O)N[C@@H](CO)C(=O)N[C@@H](CC(C)C)C(=O)N[C@@H](CC(=O)O)C(=O)N[C@H](C(=O)N1CCC[C@H]1C(=O)N[C@H](C(=O)N[C@@H](CCCCN)C(=O)N[C@@H](CC(C)C)C(=O)N[C@@H](CCCCNC(=O)COCCOCCNC(=O)COCCOCCNC(=O)CC[C@H](NC(=O)CCCCCCCCCCCCCCCCC(=O)O)C(=O)O)C(=O)N[C@@H](CCC(N)=O)C(=O)N[C@H](C(=O)N[C@@H](CC(C)C)C(=O)N[C@@H](CC(C)C)C(=O)N[C@@H](CCC(=O)O)C(=O)N[C@@H](CCC(N)=O)C(=O)N[C@@H](CCC(=O)O)C(=O)N[C@@H](CCCNC(=N)N)C(=O)N[C@@H](CCC(N)=O)C(=O)N[C@@H](CCCNC(=N)N)C(=O)N[C@@H](CCCCN)C(=O)N[C@@H](CCC(=O)O)C(=O)N[C@@H](CCCNC(=N)N)C(=O)N[C@@H](CCC(N)=O)C(=O)N[C@@H](CCC(N)=O)C(=O)N[C@@H](C)C(=O)N[C@@H](CCC(=O)O)C(=O)N[C@H](C(=O)N[C@@H](CC(N)=O)C(=O)N[C@H](C(=O)N[C@@H](CCC(N)=O)C(=O)N[C@H](C(=O)N[C@@H](CC(C)C)C(=O)N[C@@H](C)C(=O)N[C@@H](CCC(N)=O)C(=O)N[C@H](C(N)=O)C(C)C)[C@@H](C)CC)C(C)C)[C@@H](C)O)[C@@H](C)CC)[C@@H](C)CC)C(C)C)C(C)C [compound 40] (H-IVLSLDVPIKLK([AEEA-AEEA-γGlu-C18 diacid])QILLEQERQRKERQQAETNVQILAQV-NH2; N-terminus assumed)	15.4 nM
CC[C@H](C)[C@H](N)C(=O)N[C@H](C(=O)N[C@@H](CC(C)C)C(=O)N[C@@H](CO)C(=O)N[C@@H](CC(C)C)C(=O)N[C@@H](CC(=O)O)C(=O)N[C@H](C(=O)N1CCC[C@H]1C(=O)N[C@H](C(=O)N[C@@H](CCCCN)C(=O)N[C@@H](CC(C)C)C(=O)N[C@@H](CCCCNC(=O)COCCOCCNC(=O)COCCOCCNC(=O)CC[C@H](NC(=O)CCCCCCCCCCCCCCCCC(=O)O)C(=O)O)C(=O)N[C@@H](CCC(N)=O)C(=O)N[C@H](C(=O)N[C@@H](CC(C)C)C(=O)N[C@@H](CC(C)C)C(=O)N[C@@H](CCC(=O)O)C(=O)N[C@@H](CCC(N)=O)C(=O)N[C@@H](C)C(=O)N[C@@H](CCCCN)C(=O)N[C@@H](CCC(N)=O)C(=O)N[C@@H](CCCCN)C(=O)N[C@@H](CCCCN)C(=O)N[C@@H](CCC(=O)O)C(=O)N[C@@H](CCCNC(=N)N)C(=O)N[C@@H](C)C(=O)N[C@@H](CCC(N)=O)C(=O)N[C@@H](C)C(=O)N[C@@H](CCC(=O)O)C(=O)N[C@H](C(=O)N[C@@H](CC(N)=O)C(=O)N[C@H](C(=O)N[C@@H](CCCNC(=N)N)C(=O)N[C@H](C(=O)N[C@@H](CC(C)C)C(=O)N[C@@H](CCC(=O)O)C(=O)N[C@@H](CCCNC(=N)N)C(=O)N[C@H](C(N)=O)C(C)C)[C@@H](C)CC)C(C)C)[C@@H](C)O)[C@@H](C)CC)[C@@H](C)CC)C(C)C)C(C)C [compound 44] (H-IVLSLDVPIKLK([AEEA-AEEA-γGlu-C18 diacid])QILLEQAKQKKERAQAETNVRILERV-NH2)	13.7 nM

Next, values leading:

EC50	Structure (SMILES)
20.9 nM	CC[C@H](C)[C@H](N)C(=O)N[C@H](C(=O)N[C@@H](CC(C)C)C(=O)N[C@@H](CO)C(=O)N[C@@H](CC(C)C)C(=O)N[C@@H](CC(=O)O)C(=O)N[C@H](C(=O)N1CCC[C@H]1C(=O)N[C@H](C(=O)N[C@@H](CCCCN)C(=O)N[C@@H](CC(C)C)C(=O)N[C@@H](CCCCNC(=O)COCCOCCNC(=O)COCCOCCNC(=O)CC[C@H](NC(=O)CCCCCCCCCCCCCCCCC(=O)O)C(=O)O)C(=O)N[C@@H](CCC(N)=O)C(=O)N[C@@H](CCCCN)C(=O)N[C@@H](CC(C)C)C(=O)N[C@@H](CC(C)C)C(=O)N[C@@H](CCCCN)C(=O)N[C@@H](CCC(N)=O)C(=O)N[C@@H](CCC(=O)O)C(=O)N[C@@H](CCCNC(=N)N)C(=O)N[C@@H](CCC(N)=O)C(=O)N[C@@H](CCCNC(=N)N)C(=O)NC(C)(C)C(=O)N[C@@H](CCC(=O)O)C(=O)N[C@@H](CCCNC(=N)N)C(=O)N[C@@H](CCC(N)=O)C(=O)N[C@@H](CCC(N)=O)C(=O)N[C@@H](C)C(=O)N[C@@H](CCC(=O)O)C(=O)N[C@H](C(=O)N[C@@H](CC(N)=O)C(=O)N[C@@H](CCCCN)C(=O)N[C@@H](CCCNC(=N)N)C(=O)N[C@H](C(=O)N[C@@H](CC(C)C)C(=O)N[C@@H](CCC(=O)O)C(=O)N[C@@H](CCCNC(=N)N)C(=O)N[C@H](C(N)=O)C(C)C)[C@@H](C)CC)[C@@H](C)O)[C@@H](C)O)C(C)C)C(C)C [compound 38] (H-IVLSLDVPTKLK([AEEA-AEEA-γGlu-C18 diacid])QKLLKQERQR[Aib]ERQQAETNKRILERV-NH2)
15.6 nM	CC[C@H](C)[C@H](N)C(=O)N[C@H](C(=O)N[C@@H](CC(C)C)C(=O)N[C@@H](CO)C(=O)N[C@@H](CC(C)C)C(=O)N[C@@H](CC(=O)O)C(=O)N[C@H](C(=O)N1CCC[C@H]1C(=O)N[C@H](C(=O)N[C@@H](CCCCN)C(=O)N[C@@H](CC(C)C)C(=O)N[C@@H](CCCCNC(=O)COCCOCCNC(=O)COCCOCCNC(=O)CC[C@H](NC(=O)CCCCCCCCCCCCCCCCC(=O)O)C(=O)O)C(=O)N[C@@H](CCC(N)=O)C(=O)N[C@H](C(=O)N[C@@H](CC(C)C)C(=O)N[C@@H](CC(C)C)C(=O)N[C@@H](CCC(=O)O)C(=O)N[C@@H](CCC(N)=O)C(=O)N[C@@H](CCC(=O)O)C(=O)N[C@@H](CCCNC(=N)N)C(=O)N[C@@H](CCC(N)=O)C(=O)N[C@@H](CCCNC(=N)N)C(=O)N[C@@H](CCCCN)C(=O)N[C@@H](CCC(=O)O)C(=O)N[C@@H](CCCNC(=N)N)C(=O)N[C@@H](CCC(N)=O)C(=O)N[C@@H](CCC(N)=O)C(=O)N[C@@H](C)C(=O)N[C@@H](CCC(=O)O)C(=O)N[C@@H](CCCCN)C(=O)N[C@@H](CC(N)=O)C(=O)N[C@H](C(=O)N[C@@H](CCCNC(=N)N)C(=O)N[C@H](C(=O)N[C@@H](CC(C)C)C(=O)N[C@@H](CCC(=O)O)C(=O)N[C@@H](CCCNC(=N)N)C(=O)N[C@H](C(N)=O)C(C)C)[C@@H](C)CC)C(C)C)[C@@H](C)CC)[C@@H](C)CC)C(C)C)C(C)C [compound 41] (H-IVLSLDVPIKLK([AEEA-AEEA-γGlu-C18 diacid])QILLEQERQRKERQQAEKNVRILERV-NH2; N-terminus assumed)
15.4 nM	CC[C@H](C)[C@H](N)C(=O)N[C@H](C(=O)N[C@@H](CC(C)C)C(=O)N[C@@H](CO)C(=O)N[C@@H](CC(C)C)C(=O)N[C@@H](CC(=O)O)C(=O)N[C@H](C(=O)N1CCC[C@H]1C(=O)N[C@H](C(=O)N[C@@H](CCCCN)C(=O)N[C@@H](CC(C)C)C(=O)N[C@@H](CCCCNC(=O)COCCOCCNC(=O)COCCOCCNC(=O)CC[C@H](NC(=O)CCCCCCCCCCCCCCCCC(=O)O)C(=O)O)C(=O)N[C@@H](CCC(N)=O)C(=O)N[C@H](C(=O)N[C@@H](CC(C)C)C(=O)N[C@@H](CC(C)C)C(=O)N[C@@H](CCC(=O)O)C(=O)N[C@@H](CCC(N)=O)C(=O)N[C@@H](CCC(=O)O)C(=O)N[C@@H](CCCNC(=N)N)C(=O)N[C@@H](CCC(N)=O)C(=O)N[C@@H](CCCNC(=N)N)C(=O)NC(C)(C)C(=O)N[C@@H](CCC(=O)O)C(=O)N[C@@H](CCCNC(=N)N)C(=O)N[C@@H](CCC(N)=O)C(=O)N[C@@H](CCC(N)=O)C(=O)N[C@@H](C)C(=O)N[C@@H](CCC(=O)O)C(=O)N[C@@H](CCCCN)C(=O)N[C@@H](CC(N)=O)C(=O)N[C@H](C(=O)N[C@@H](CCCNC(=N)N)C(=O)N[C@H](C(=O)N[C@@H](CC(C)C)C(=O)N[C@@H](CCC(=O)O)C(=O)N[C@@H](CCCNC(=N)N)C(=O)N[C@H](C(N)=O)C(C)C)[C@@H](C)CC)C(C)C)[C@@H](C)CC)[C@@H](C)CC)C(C)C)C(C)C [compound 42] (H-IVLSLDVPIKLK([AEEA-AEEA-γGlu-C18 diacid])QILLEQERQR[Aib]ERQQAEKNVRILERV-NH2)
